Reference: the NIST ThermoML archive (doi:10.1021/je0602925)
± gives the expanded uncertainty stated by the source.

Test: activity coefficient (dimensionless); of the first substance listed, at infinite dilution; xn = mol fraction of the nth substance listed
Details: Liquid, Chromatography, x1 = 0

Row | SMILES | activity coefficient (308.15 K) | activity coefficient (318.15 K) | activity coefficient (328.15 K)
1 | C#CCCCCCC [1-octyne] + CCCCCCCCCCCCCC[P+](CCCCCC)(CCCCCC)CCCCCC.O=S(=O)([N-]S(=O)(=O)C(F)(F)F)C(F)(F)F | 0.511 ± 0.038 | 0.524 ± 0.039 | 0.532 ± 0.039
2 | C=CCCCC [hex-1-ene] + CCCCCCCCCCCCCC[P+](CCCCCC)(CCCCCC)CCCCCC.F[B-](F)(F)F | 0.57 ± 0.041 | 0.558 ± 0.04 | 0.551 ± 0.04
3 | C=CCCCC [hex-1-ene] + CCCCCCCCCCCCCC[P+](CCCCCC)(CCCCCC)CCCCCC.O=S(=O)([N-]S(=O)(=O)C(F)(F)F)C(F)(F)F | 0.501 ± 0.038 | 0.494 ± 0.038 | 0.49 ± 0.037
4 | CCCCCCC [heptane] + CCCCCCCCCCCCCC[P+](CCCCCC)(CCCCCC)CCCCCC.[Cl-] | 0.816 ± 0.053 | 0.803 ± 0.052 | 0.795 ± 0.052
5 | CCCCCC [hexane] + CCCCCCCCCCCCCC[P+](CCCCCC)(CCCCCC)CCCCCC.[Cl-] | 0.766 ± 0.05 | 0.753 ± 0.05 | 0.746 ± 0.049
6 | C#CCCCCC [1-heptyne] + CCCCCCCCCCCCCC[P+](CCCCCC)(CCCCCC)CCCCCC.O=S(=O)([N-]S(=O)(=O)C(F)(F)F)C(F)(F)F | 0.485 ± 0.037 | 0.496 ± 0.038 | 0.502 ± 0.038
7 | C1CCCCC1 [cyclohexane] + CCCCCCCCCCCCCC[P+](CCCCCC)(CCCCCC)CCCCCC.F[B-](F)(F)F | 0.73 ± 0.048 | 0.719 ± 0.048 | 0.712 ± 0.047
8 | CO [methanol] + CCCCCCCCCCCCCC[P+](CCCCCC)(CCCCCC)CCCCCC.[Cl-] | 0.887 ± 0.056 | 0.879 ± 0.056 | 0.873 ± 0.056
9 | C1CCCCC1 [cyclohexane] + CCCCCCCCCCCCCC[P+](CCCCCC)(CCCCCC)CCCCCC.O=S(=O)([N-]S(=O)(=O)C(F)(F)F)C(F)(F)F | 0.612 ± 0.043 | 0.609 ± 0.043 | 0.607 ± 0.042
10 | CCCCC [pentane] + CCCCCCCCCCCCCC[P+](CCCCCC)(CCCCCC)CCCCCC.[Cl-] | 0.607 ± 0.042 | 0.599 ± 0.042 | 0.594 ± 0.042
11 | C#CCCCC [1-hexyne] + CCCCCCCCCCCCCC[P+](CCCCCC)(CCCCCC)CCCCCC.[Cl-] | 0.449 ± 0.036 | 0.461 ± 0.036 | 0.468 ± 0.037
12 | C=CCCCCCC [oct-1-ene] + CCCCCCCCCCCCCC[P+](CCCCCC)(CCCCCC)CCCCCC.O=S(=O)([N-]S(=O)(=O)C(F)(F)F)C(F)(F)F | 0.617 ± 0.043 | 0.605 ± 0.042 | 0.598 ± 0.042
13 | C=CCCCCCC [oct-1-ene] + CCCCCCCCCCCCCC[P+](CCCCCC)(CCCCCC)CCCCCC.F[B-](F)(F)F | 0.769 ± 0.05 | 0.748 ± 0.049 | 0.734 ± 0.049
14 | CCO [ethanol] + CCCCCCCCCCCCCC[P+](CCCCCC)(CCCCCC)CCCCCC.O=S(=O)([N-]S(=O)(=O)C(F)(F)F)C(F)(F)F | 0.884 ± 0.056 | 0.894 ± 0.057 | 0.902 ± 0.057
15 | C#CCCCCC [1-heptyne] + CCCCCCCCCCCCCC[P+](CCCCCC)(CCCCCC)CCCCCC.[Cl-] | 0.479 ± 0.037 | 0.494 ± 0.038 | 0.504 ± 0.038
16 | c1ccccc1 [benzene] + CCCCCCCCCCCCCC[P+](CCCCCC)(CCCCCC)CCCCCC.F[B-](F)(F)F | 0.37 ± 0.033 | 0.367 ± 0.033 | 0.366 ± 0.033
17 | CO [methanol] + CCCCCCCCCCCCCC[P+](CCCCCC)(CCCCCC)CCCCCC.F[B-](F)(F)F | 6.68 ± 0.46 | 6.38 ± 0.43 | 6.1 ± 0.42
18 | CCCCCCCC [octane] + CCCCCCCCCCCCCC[P+](CCCCCC)(CCCCCC)CCCCCC.F[B-](F)(F)F | 1.15 ± 0.073 | 1.11 ± 0.071 | 1.09 ± 0.069
19 | CCCCCCC [heptane] + CCCCCCCCCCCCCC[P+](CCCCCC)(CCCCCC)CCCCCC.F[B-](F)(F)F | 1 ± 0.063 | 0.97 ± 0.061 | 0.952 ± 0.06
20 | C=CCCCCCC [oct-1-ene] + CCCCCCCCCCCCCC[P+](CCCCCC)(CCCCCC)CCCCCC.[Cl-] | 0.567 ± 0.041 | 0.557 ± 0.04 | 0.552 ± 0.04
21 | CCCCC [pentane] + CCCCCCCCCCCCCC[P+](CCCCCC)(CCCCCC)CCCCCC.F[B-](F)(F)F | 0.722 ± 0.048 | 0.706 ± 0.047 | 0.695 ± 0.047
22 | C1CCCC1 [cyclopentane] + CCCCCCCCCCCCCC[P+](CCCCCC)(CCCCCC)CCCCCC.O=S(=O)([N-]S(=O)(=O)C(F)(F)F)C(F)(F)F | 0.562 ± 0.04 | 0.559 ± 0.04 | 0.558 ± 0.04
23 | C#CCCCCC [1-heptyne] + CCCCCCCCCCCCCC[P+](CCCCCC)(CCCCCC)CCCCCC.F[B-](F)(F)F | 0.374 ± 0.033 | 0.389 ± 0.034 | 0.399 ± 0.034
